Experimental data taken from patent publication US20240132489A1, “AROMATIC HETEROCYCLIC COMPOUND, PHARMACEUTICAL COMPOSITION, AND USE THEREOF” (GT APEIRON THERAPEUTICS LIMITED, priority 2020, published 2024).
Counter-ions that a name gives are not always drawn.

Tests used:
[1] = target: CDK7/cyclin H/MAT1 complex (Homo sapiens (Human), UniProt P50613); test: In vitro enzymatic inhibitory activity test, CDK7; type: biochemical; conditions: Caliper mobility shift, 180 min at 27° C.
[2] = target: CDK12(aa686-1082)/cyclin K complex (Homo sapiens (Human), UniProt Q9NYV4); test: In vitro enzymatic inhibitory activity test, CDK12; type: biochemical; conditions: Caliper mobility shift, 180 min at 27° C.
Sequence of CDK12(aa686-1082)/cyclin K complex (Q9NYV4 686-1082, species assumed): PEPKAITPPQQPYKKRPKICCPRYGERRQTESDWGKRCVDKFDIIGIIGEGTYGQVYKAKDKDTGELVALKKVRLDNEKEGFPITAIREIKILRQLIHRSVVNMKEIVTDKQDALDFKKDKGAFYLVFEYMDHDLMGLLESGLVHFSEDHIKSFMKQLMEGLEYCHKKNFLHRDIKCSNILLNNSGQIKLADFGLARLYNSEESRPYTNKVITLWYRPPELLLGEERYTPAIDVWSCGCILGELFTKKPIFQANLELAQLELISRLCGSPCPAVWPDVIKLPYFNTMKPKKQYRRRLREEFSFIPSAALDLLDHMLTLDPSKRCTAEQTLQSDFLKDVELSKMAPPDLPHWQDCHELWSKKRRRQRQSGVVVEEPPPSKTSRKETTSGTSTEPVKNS
Sequence of CDK12(aa686-1082)/cyclin K complex (O75909 whole entry partner, species assumed, the tested form may be a part): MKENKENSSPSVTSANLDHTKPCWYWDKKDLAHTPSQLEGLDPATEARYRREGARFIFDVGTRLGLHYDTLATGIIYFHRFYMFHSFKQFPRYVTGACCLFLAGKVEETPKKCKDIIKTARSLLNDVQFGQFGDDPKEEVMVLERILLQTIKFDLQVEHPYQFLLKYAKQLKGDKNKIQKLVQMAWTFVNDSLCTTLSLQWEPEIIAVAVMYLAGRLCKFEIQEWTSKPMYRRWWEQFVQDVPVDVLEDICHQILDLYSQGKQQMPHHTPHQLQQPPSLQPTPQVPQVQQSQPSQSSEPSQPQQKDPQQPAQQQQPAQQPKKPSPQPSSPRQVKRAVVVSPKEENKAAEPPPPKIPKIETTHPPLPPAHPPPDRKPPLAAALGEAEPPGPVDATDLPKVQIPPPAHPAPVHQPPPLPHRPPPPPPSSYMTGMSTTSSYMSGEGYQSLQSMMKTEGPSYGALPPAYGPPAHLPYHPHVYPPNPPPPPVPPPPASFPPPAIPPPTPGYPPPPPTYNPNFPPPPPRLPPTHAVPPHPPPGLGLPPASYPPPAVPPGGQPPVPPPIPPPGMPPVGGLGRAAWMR

[3] = tested on: HCC70 cells; test: Cell bioactivity detection (CyQuant), HCC70; type: cell-based; conditions: human breast cancer cells HCC70, 72 hours
In short: (§1)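 A2780 or HCC70 cells (2000/well, RPMI 1640 + 10% FBS) were seeded overnight, then treated for 72 h at 37° C, 5% CO2 with compound: top 10 μM, 1:4 dilutions, 9 points, 0.2% DMSO. Viable cell number was measured by CyQuant Direct nucleic-acid staining (≥60 min, 37° C) on an Acumen reader at 488 nm excitation, and IC50 was calculated.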

[4] = tested on: A2780 cells; test: Cell bioactivity detection (CyQuant), A2780; type: cell-based, human; conditions: ovarian carcinoma cells A2780, 72 hours
In short: as §1

[5] = target: CDK9/CyclinT1 (Homo sapiens (Human), UniProt P50750); test: In vitro enzymatic inhibitory activity test, CDK9; type: biochemical; conditions: Caliper mobility shift, 180 min at 27° C.
Sequence of CDK9/CyclinT1 (P50750 whole entry, species assumed): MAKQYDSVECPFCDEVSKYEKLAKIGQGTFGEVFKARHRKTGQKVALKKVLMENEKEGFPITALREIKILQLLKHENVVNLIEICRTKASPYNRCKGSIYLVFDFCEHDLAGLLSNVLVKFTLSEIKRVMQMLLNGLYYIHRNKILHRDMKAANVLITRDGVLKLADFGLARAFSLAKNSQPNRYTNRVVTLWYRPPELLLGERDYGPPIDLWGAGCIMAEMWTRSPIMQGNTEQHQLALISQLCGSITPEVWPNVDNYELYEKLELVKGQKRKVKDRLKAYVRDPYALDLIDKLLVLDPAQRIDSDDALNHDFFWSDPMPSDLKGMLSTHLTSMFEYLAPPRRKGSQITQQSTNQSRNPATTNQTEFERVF
Sequence of CDK9/CyclinT1 (O60563 whole entry partner, species assumed): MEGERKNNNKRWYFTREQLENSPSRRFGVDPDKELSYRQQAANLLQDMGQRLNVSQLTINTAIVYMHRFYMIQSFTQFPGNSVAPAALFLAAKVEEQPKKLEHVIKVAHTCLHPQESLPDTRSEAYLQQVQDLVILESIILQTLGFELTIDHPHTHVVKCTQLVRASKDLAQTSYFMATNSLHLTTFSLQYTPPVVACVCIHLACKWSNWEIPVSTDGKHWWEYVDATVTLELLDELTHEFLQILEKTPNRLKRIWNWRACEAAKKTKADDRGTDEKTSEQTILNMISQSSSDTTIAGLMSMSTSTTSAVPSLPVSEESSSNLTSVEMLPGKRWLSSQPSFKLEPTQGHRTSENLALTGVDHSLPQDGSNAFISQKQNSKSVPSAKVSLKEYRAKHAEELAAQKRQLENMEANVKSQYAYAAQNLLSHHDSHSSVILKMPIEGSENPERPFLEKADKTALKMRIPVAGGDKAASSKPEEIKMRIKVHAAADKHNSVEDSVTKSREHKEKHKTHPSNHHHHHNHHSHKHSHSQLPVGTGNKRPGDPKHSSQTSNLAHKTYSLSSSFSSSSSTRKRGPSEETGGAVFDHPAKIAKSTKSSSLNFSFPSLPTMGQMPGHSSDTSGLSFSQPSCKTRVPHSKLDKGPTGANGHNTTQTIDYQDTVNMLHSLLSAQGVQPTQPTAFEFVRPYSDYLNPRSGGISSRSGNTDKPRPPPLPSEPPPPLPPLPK

[6] = target: CDK2/cyclin E1 complex (Homo sapiens (Human), UniProt P24941); test: In vitro enzymatic inhibitory activity test, CDK2; type: biochemical; conditions: Caliper mobility shift, 180 min at 27° C.

Sequence of CDK7/cyclin H/MAT1 complex (P50613 whole entry, species assumed, the tested form may be a part): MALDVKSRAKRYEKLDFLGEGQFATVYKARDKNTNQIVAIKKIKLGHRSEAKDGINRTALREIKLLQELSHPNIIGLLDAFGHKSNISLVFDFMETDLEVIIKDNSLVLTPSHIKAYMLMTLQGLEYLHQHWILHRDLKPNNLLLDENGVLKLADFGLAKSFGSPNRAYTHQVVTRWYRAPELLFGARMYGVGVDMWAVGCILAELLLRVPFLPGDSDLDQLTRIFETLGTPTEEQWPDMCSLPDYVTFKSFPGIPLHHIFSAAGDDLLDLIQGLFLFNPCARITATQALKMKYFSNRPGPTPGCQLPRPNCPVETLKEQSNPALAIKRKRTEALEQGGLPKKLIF
Sequence of CDK7/cyclin H/MAT1 complex (P51946 whole entry partner, species assumed, the tested form may be a part): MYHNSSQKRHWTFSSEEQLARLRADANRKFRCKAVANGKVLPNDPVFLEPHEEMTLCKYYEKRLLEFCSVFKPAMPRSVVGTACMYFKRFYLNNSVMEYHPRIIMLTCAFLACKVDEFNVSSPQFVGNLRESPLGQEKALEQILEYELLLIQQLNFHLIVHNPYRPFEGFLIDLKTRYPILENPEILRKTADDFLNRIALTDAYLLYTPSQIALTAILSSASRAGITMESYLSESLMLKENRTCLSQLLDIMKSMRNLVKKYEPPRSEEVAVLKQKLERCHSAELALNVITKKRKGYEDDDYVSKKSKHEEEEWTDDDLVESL
Sequence of CDK7/cyclin H/MAT1 complex (P51948 whole entry partner, species assumed, the tested form may be a part): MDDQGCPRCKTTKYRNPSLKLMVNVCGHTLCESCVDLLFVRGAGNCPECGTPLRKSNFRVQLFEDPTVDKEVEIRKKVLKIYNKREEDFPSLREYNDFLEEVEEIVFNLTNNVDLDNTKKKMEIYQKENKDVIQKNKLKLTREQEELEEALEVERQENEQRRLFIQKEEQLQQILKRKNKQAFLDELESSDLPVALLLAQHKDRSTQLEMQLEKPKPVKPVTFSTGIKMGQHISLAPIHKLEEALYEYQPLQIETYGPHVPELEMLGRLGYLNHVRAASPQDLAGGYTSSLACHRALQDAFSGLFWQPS

| SMILES | IC50 [1] [nM] | IC50 [2] [nM] | IC50 ([4]; Homo sapiens, A2780, 72 h) [nM] | IC50 [5] [nM] | IC50 [6] [nM] | IC50 [4] [nM] | IC50 ([3]; Homo sapiens, HCC70, 72 h) [nM] | IC50 [3] [nM] |
| --- | --- | --- | --- | --- | --- | --- | --- | --- |
| FC(F)(F)c1cnc(N[C@H]2CCCNC2)nc1-c1c[nH]c2nc(N3CC4CC(C3)O4)ccc12 [Compound 34, 4-(6-(6-oxo-3-azabicyclo[3.1.1]heptan-3-yl)-1H-pyrrol[2,3-b]pyridin-3-yl)-N—((S)-piperidin-3-yl)-5-(trifluoromethyl)pyrimidine-2-amine] | 40.2 | 1090 | 3.3 | 1660 | 1270 | – | 15 | – |
| FC(F)(F)c1cnc(N[C@@H]2CN3CCC2CC3)nc1-c1c[nH]c2nc(N3CCOCC3)ccc12 [Compound 44, (S)—N-(4-(6-morpholinyl-1H-pyrrol[2,3-b]pyridin-3-yl)-5-(trifluoromethyl)pyrimidin-2-yl)quinine-3-amine formate] | 131 | 4460 | 253 | 3650 | > 10000 | – | 684 | – |
| C[C@H]1COCCN1c1ccc2c(-c3nc(N[C@H]4CCC5(CC5)NC4)ncc3C(F)(F)F)c[nH]c2n1 [Compound 70, (S)—N-(4-(6-((S)-3-methylmorpholinyl)-1H-pyrrol[2,3-b]pyridin-3-yl)-5-(trifluoromethyl)pyrimidin-2-yl)-4-azaspiro[2.5]octan-6-amine formate] | 41.2 | 49000 | 146 | > 50000 | 37600 | – | 484 | – |
| C[C@H]1COCCN1c1ccc2c(-c3nc(N[C@@H]4CNCC(F)(F)C4)ncc3C(F)(F)F)c[nH]c2n1 [Compound 71, N—((S)-5,5-difluoropiperidin-3-yl)-4-(6-((S)-3-methylmorpholinyl)-1H-pyrrol[2,3-b]pyridin-3-yl)-5-(trifluoromethyl)pyrimidine-2-amine] | 31.7 | 6680 | – | > 50000 | 9300 | 547 | – | 390 |
| C[C@H]1CNC[C@@H](Nc2ncc(C(F)(F)F)c(-c3c[nH]c4nc(N5CCOC[C@@H]5C)ccc34)n2)C1 [Compound 72, 4-(6-((S)-3-methylmorpholinyl)-1H-pyrrol[2,3-b]pyridin-3-yl)-N-((3S,5R)-5-methylpiperidin-3-yl)-5-(trifluoromethyl)pyrimidine-2-amine] | 17.6 | 2540 | – | 1820 | 3350 | 2.8 | – | 21 |
| C[C@H]1COCCN1c1ccc2c(-c3nc(N[C@@H]4CNC[C@@H](F)C4)ncc3C(F)(F)F)c[nH]c2n1 [Compound 73, N-((3S,5S)-5-fluoropyridin-3-yl)-4-(6-((S)-3-methylmorpholinyl)-1H-pyrrol[2,3-b]pyridin-3-yl)-5-(trifluoromethyl)pyrimidine-2-amine] | 11.5 | 3380 | – | 3350 | 4290 | 6.2 | – | 35 |
| C[C@H]1COCCN1c1ccc2c(-c3nc(N[C@@H]4CNC[C@H](F)C4)ncc3C(F)(F)F)c[nH]c2n1 [Compound 74] | 10.2 | 12000 | – | > 50000 | 27300 | 177 | – | 199 |
| C[C@H]1COCCN1c1nc2[nH]cc(-c3nc(N[C@H]4CCCNC4)ncc3C(F)(F)F)c2cc1F [Compound 75, 4-(5-fluoro-6-((S)-3-methylmorpholinyl)-1H-pyrrol[2,3-b]pyridin-3-yl)-N—((S)-piperidin-3-yl)-5-(trifluoromethyl)pyrimidine-2-amine formate] | 8.5 | 3340 | 7.4 | 5930 | 2380 | – | 9.2 | – |
| FC(F)(F)c1cnc(N[C@H]2CCCNC2)nc1-c1c[nH]c2nc(N3C4COCC3C4)ccc12 [Compound 103, 4-(6-(3-oxo-6-azabicyclo[3.1.1]heptan-6-yl)-1H-pyrrol[2,3-b]pyridin-3-yl)-N—((S)-piperidin-3-yl)-5-(trifluoromethyl)pyrimidine-2-amine formate] | 7.26 | 1390 | 18.2 | 3680 | 2830 | – | 22.3 | – |
| FC(F)(F)c1cnc(N[C@H]2CCCNC2)nc1-c1c[nH]c2nc(C3=CCCCO3)ccc12 [Compound 109, (S)-4-(6-(3,4-dihydropyran-6-yl)-1H-pyrrol[2,3-b]pyridin-3-yl)-N-(piperidin-3-yl)-5-(trifluoromethyl)pyrimidine-2-amine] | 5.62 | 1000 | 5.61 | 2870 | 2150 | – | 3.98 | – |
| CC1COCCC1c1ccc2c(-c3nc(N[C@H]4CCCNC4)ncc3C(F)(F)F)c[nH]c2n1 (stereo partly drawn) [Compound 110, 4-(6-(3-methyltetrahydropyran-4-yl)-1H-pyrrol[2,3-b]pyridin-3-yl)-N—((S)-piperidin-3-yl)-5-(trifluoromethyl)pyrimidine-2-amine formate] | 3.48 | 1610 | 38.6 | 4260 | 2180 | – | 38.6 | – |

More lines, in order of falling IC50 [1], values ahead:

| IC50 [1] [nM] | IC50 [2] [nM] | IC50 ([4]; Homo sapiens, A2780, 72 h) [nM] | IC50 [5] [nM] | IC50 [6] [nM] | IC50 [4] [nM] | SMILES | IC50 ([3]; Homo sapiens, HCC70, 72 h) [nM] | IC50 [3] [nM] |
| --- | --- | --- | --- | --- | --- | --- | --- | --- |
| 28.5 | 1600 | 157 | 4610 | > 10000 | – | FC(F)(F)c1cnc(N[C@H]2CCCNC2)nc1-c1c[nH]c2cc(N3CCCC3)ccc12 [Compound 101, (S)—N-(Piperidin-3-Yl)-4-(6-(Pyrrolidin-1-Yl)-1H-Indol-3-Yl)-5-(Trifluoromethyl)Pyrimidine-2-Amine, reference compound] | 232 | – |
| 9.52 | 12900 | 45.5 | 27700 | 19500 | – | C[C@@H]1CNC[C@@H](Nc2ncc(C(F)(F)F)c(-c3c[nH]c4nc(N5CCOC[C@@H]5C)ccc34)n2)C1 [Compound 115, 4-(6-((S)-3-methylmorpholinyl)-1H-pyrrol[2,3-b]pyridin-3-yl)-N-((3S,5S)-5-methylpiperidin-3-yl)-5-(trifluoromethyl)pyrimidine-2-amine] | 42 | – |
| 8.79 | > 10000 | 36 | 8070 | > 10000 | – | CC1(C)CC[C@H](Nc2ncc(C(F)(F)F)c(-c3c[nH]c4nc(N5CCOCC5)ccc34)n2)CN1 [Compound 60, (S)—N-(6,6-dimethylpiperidin-3-yl)-4-(6-morpholinyl-1H-pyrrol[2,3-b]pyridin-3-yl)-5-(trifluoromethyl)pyrimidine-2-amine] | 475 | – |
| 6.73 | 1210 | 17.6 | 2470 | 1720 | – | CP(C)(=O)c1ccc2c(-c3nc(N[C@H]4CCCNC4)ncc3C(F)(F)F)c[nH]c2n1 [Compound 114, (S)-dimethyl(3-(2-(piperidine-3-amino)-5-(trifluoromethyl)pyrimidin-4-yl)-1H-pyrrolo[2,3-b]pyridin-6-yl)phosphine oxide formate] | 18.1 | – |
| 5.85 | 773 | 5.37 | 2750 | 1550 | – | CC[C@H]1COCCN1c1ccc2c(-c3nc(N[C@H]4CCCNC4)ncc3C(F)(F)F)c[nH]c2n1 [Compound 104, 4-(6-((S)-3-ethylmorpholinyl)-1H-pyrrol[2,3-b]pyridin-3-yl)-N—((S)-piperidin-3-yl)-5-(trifluoromethyl)pyrimidine-2-amine formate] | 4.97 | – |
